Results reported in DBAASP.
≈ marks a conversion by molar mass, not a printed value. Values belong to the molecule of their own block, whether it stands above or below them.

Tests used:
Experiment in all cases: ≥ marks a high value that may be exact or a test limit, other limits are often not marked, values filed in µg/mL are converted to µM
[1] = system: Staphylococcus aureus ATCC BAA-1556
[2] = system: Acinetobacter baumannii 97830
[3] = system: Acinetobacter baumannii 9931
[4] = system: Acinetobacter baumannii ATCC 19606
[5] = system: Bacillus subtilis ATCC 23857
Escherichia coli 780 = system: Escherichia coli 780
Escherichia coli 804 = system: Escherichia coli 804
[6] = system: Klebsiella pneumoniae ATCC 700603
[7] = system: Pseudomonas aeruginosa 50
[8] = system: Pseudomonas aeruginosa 73
[9] = system: Pseudomonas aeruginosa ATCC 27853
[10] = system: Pseudomonas aeruginosa ATCC 9027
[11] = system: Staphylococcus aureus 113
Staphylococcus aureus 75 = system: Staphylococcus aureus 75
[12] = system: Staphylococcus aureus ATCC 29213
[13] = system: Staphylococcus epidermidis ATCC 12228
[14] = system: Acinetobacter baumannii LMG 01041
[15] = system: Escherichia coli LMG 15862
[16] = system: Klebsiella aerogenes LMG 02094
[17] = system: Klebsiella pneumoniae LMG 20218
[18] = system: Pseudomonas aeruginosa LMG 6395

Compound: CC(C)C[C@H](NC(=O)[C@H](CCCN=C(N)N)NC(=O)[C@H](Cc1c[nH]c2ccccc12)NC(=O)[C@H](Cc1c[nH]c2ccccc12)NC(=O)[C@H](Cc1c[nH]c2ccccc12)NC(=O)[C@H](CCCN=C(N)N)NC(=O)[C@@H](N)CC(C)C)C(N)=O [LRWWWRL]
MIC [2]: 16 µM (≈ 17.8 µg/mL)
MIC [3]: 16 µM (≈ 17.8 µg/mL)
MIC [4]: 64 µM (≈ 71.3 µg/mL)
MIC [5]: 8 µM (≈ 8.91 µg/mL)
MIC (Escherichia coli 780): 16 µM (≈ 17.8 µg/mL)
MIC (Escherichia coli 804): 16 µM (≈ 17.8 µg/mL)
MIC [6]: 32 µM (≈ 35.7 µg/mL)
MIC [7]: 16 µM (≈ 17.8 µg/mL)
MIC [8]: ≥ 32 µM
MIC [9]: 16 µM (≈ 17.8 µg/mL)
MIC [10]: 32 µM (≈ 35.7 µg/mL)
MIC [11]: 8 µM (≈ 8.91 µg/mL)
MIC (Staphylococcus aureus 75): 4 µM (≈ 4.46 µg/mL)
MIC [12]: 4 µM (≈ 4.46 µg/mL)
MIC [13]: 8 µM (≈ 8.91 µg/mL)

Compound: CC[C@H](C)[C@H](NC(=O)[C@H](CCCN=C(N)N)NC(=O)[C@H](CCC(N)=O)NC(=O)[C@@H](NC(=O)[C@@H](NC(=O)[C@@H](N)CCCN=C(N)N)[C@@H](C)CC)C(C)C)C(=O)N[C@@H](CCCCN)C(=O)N[C@@H](CCCCN)C(=O)N[C@@H](Cc1c[nH]c2ccccc12)C(=O)N[C@@H](CC(C)C)C(=O)N[C@@H](CCCN=C(N)N)C(N)=O [RIVQRIKKWLR]
MIC [14]: ≥ 64 µM
MIC [15]: 12 µM (≈ 17.9 µg/mL)
MIC [16]: ≥ 128 µM
MIC [17]: ≥ 32 µM
MIC [18]: 16 µM (≈ 23.9 µg/mL)

Compound: CC[C@H](C)[C@H](NC(=O)[C@H](CCCN=C(N)N)NC(=O)[C@H](CCC(N)=O)NC(=O)[C@@H](NC(=O)[C@@H](NC(=O)[C@@H](N)CCCN=C(N)N)[C@@H](C)CC)C(C)C)C(=O)N[C@@H](CCCCN)C(=O)N[C@@H](CCCCN)C(=O)N[C@@H](Cc1c[nH]c2ccccc12)C(=O)N[C@@H](CCCN=C(N)N)C(N)=O [RIVQRIKKWR]
MIC [14]: ≥ 256 µM
MIC [15]: ≥ 256 µM
MIC [16]: ≥ 256 µM
MIC [17]: ≥ 256 µM
MIC [18]: ≥ 256 µM

Continued, values first:

MIC [1]: ≥ 100 µM
Compound: CC(C)C[C@H](NC(=O)[C@H](CC(C)C)NC(=O)[C@H](CC(C)C)NC(=O)[C@H](CC(C)C)NC(=O)[C@H](CC(C)C)NC(=O)[C@H](CC(C)C)NC(=O)[C@H](CCCCN)NC(=O)[C@H](CCCCN)NC(=O)[C@@H](N)CC(C)C)C(N)=O [LKKLLLLLL]

MIC [2]: 16 µM (≈ 22.8 µg/mL)
MIC [3]: 16 µM (≈ 22.8 µg/mL)
MIC [4]: 64 µM (≈ 91.3 µg/mL)
MIC [5]: 2 µM (≈ 2.85 µg/mL)
MIC (Escherichia coli 780): 8 µM (≈ 11.4 µg/mL)
MIC (Escherichia coli 804): ≥ 32 µM
MIC [6]: 32 µM (≈ 45.7 µg/mL)
MIC [7]: 8 µM (≈ 11.4 µg/mL)
MIC [8]: ≥ 64 µM
MIC [9]: 16 µM (≈ 22.8 µg/mL)
MIC [10]: 16 µM (≈ 22.8 µg/mL)
MIC [11]: 4 µM (≈ 5.71 µg/mL)
MIC (Staphylococcus aureus 75): 4 µM (≈ 5.71 µg/mL)
MIC [12]: 4 µM (≈ 5.71 µg/mL)
MIC [13]: 2 µM (≈ 2.85 µg/mL)
Compound: CC(C)C[C@H](NC(=O)[C@H](CCCN=C(N)N)NC(=O)[C@H](CCCN=C(N)N)NC(=O)[C@H](Cc1c[nH]c2ccccc12)NC(=O)[C@H](Cc1c[nH]c2ccccc12)NC(=O)[C@H](Cc1c[nH]c2ccccc12)NC(=O)[C@H](CCCN=C(N)N)NC(=O)[C@H](CCCN=C(N)N)NC(=O)[C@@H](N)CC(C)C)C(N)=O [LRRWWWRRL]

MIC [14]: ≥ 256 µM
MIC [15]: 24 µM (≈ 37.2 µg/mL)
MIC [16]: ≥ 256 µM
MIC [17]: ≥ 256 µM
MIC [18]: ≥ 32 µM
Compound: CC[C@H](C)[C@H](NC(=O)[C@H](CCCN=C(N)N)NC(=O)[C@H](CCCN=C(N)N)NC(=O)[C@H](CCCCN)NC(=O)[C@@H](NC(=O)[C@@H](N)CCCN=C(N)N)[C@@H](C)CC)C(=O)N[C@@H](CCCCN)C(=O)N[C@@H](CCCCN)C(=O)N[C@@H](Cc1c[nH]c2ccccc12)C(=O)N[C@@H](CC(C)C)C(=O)N[C@@H](CCCN=C(N)N)C(N)=O [RIKRRIKKWLR]

MIC [2]: ≥ 64 µM
MIC [3]: ≥ 32 µM
MIC [4]: > 128 µM
MIC [5]: 4 µM (≈ 6.53 µg/mL)
MIC (Escherichia coli 780): ≥ 64 µM
MIC (Escherichia coli 804): ≥ 64 µM
MIC [6]: 32 µM (≈ 52.3 µg/mL)
MIC [7]: ≥ 128 µM
MIC [8]: ≥ 128 µM
MIC [9]: > 128 µM
MIC [10]: > 128 µM
MIC [11]: 16 µM (≈ 26.1 µg/mL)
MIC (Staphylococcus aureus 75): 8 µM (≈ 13.1 µg/mL)
MIC [12]: 8 µM (≈ 13.1 µg/mL)
MIC [13]: 4 µM (≈ 6.53 µg/mL)
Compound: NC(=O)[C@H](Cc1c[nH]c2ccccc12)NC(=O)[C@H](Cc1c[nH]c2ccccc12)NC(=O)[C@H](CCCN=C(N)N)NC(=O)[C@H](Cc1c[nH]c2ccccc12)NC(=O)[C@H](Cc1c[nH]c2ccccc12)NC(=O)[C@H](Cc1c[nH]c2ccccc12)NC(=O)[C@H](CCCN=C(N)N)NC(=O)[C@H](Cc1c[nH]c2ccccc12)NC(=O)[C@@H](N)Cc1c[nH]c2ccccc12 [WWRWWWRWW]
